Source: PubChem BioAssay (NCI)
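Each compound was tested at five concentrations against cells in 96-well plates for 48 hours. Definition used: TGI = concentration required for complete inhibition of growth.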

Key:
Experiment in all cases: NCI tumour cell line growth inhibition, 48 h
[1] = test system: UO-31 renal
[2] = test system: IGROV1 ovarian
[3] = test system: MCF7 breast
[4] = test system: HCT-15 colon
[5] = test system: HCT-116 colon
[6] = test system: SF-295 CNS
[7] = test system: HS 578T breast
[8] = test system: MOLT-4 leukemia
[9] = test system: OVCAR-5 ovarian
[10] = test system: SF-539 CNS
[11] = test system: K-562 leukemia
[12] = test system: SNB-75 CNS
[13] = test system: SK-MEL-28 melanoma
[14] = test system: COLO 205 colon
[15] = test system: TK-10 renal
[16] = test system: SK-OV-3 ovarian
[17] = test system: LOX IMVI melanoma
[18] = test system: MDA-MB-435
[19] = test system: T-47D breast
[20] = test system: NCI-H460 lung
[21] = test system: CCRF-CEM leukemia
[22] = test system: KM12 colon
[23] = test system: A549 NSCLC
[24] = test system: MDA-N
[25] = test system: UACC-257 melanoma
[26] = test system: OVCAR-3 ovarian
[27] = test system: HT29 colon
[28] = test system: MALME-3M melanoma
[29] = test system: MDA-MB-231 breast
[30] = test system: M14 melanoma
[31] = test system: ACHN renal
[32] = test system: CAKI-1 renal
[33] = test system: HL-60(TB) leukemia
[34] = test system: NCI-H226 lung
[35] = test system: U251 CNS
[36] = test system: PC-3 prostate
[37] = test system: SN12C renal
[38] = test system: SK-MEL-2 melanoma
[39] = test system: HOP-62 NSCLC
[40] = test system: SW-620 colon
[41] = test system: SR leukemia
[42] = test system: SK-MEL-5 melanoma
[43] = test system: HCC-2998 colon
[44] = test system: RPMI-8226 leukemia
[45] = test system: BT-549 breast
[46] = test system: 786-0 renal
[47] = test system: OVCAR-4 ovarian
[48] = test system: SF-268 CNS
[49] = test system: EKVX NSCLC
[50] = test system: RXF 393 renal
[51] = test system: NCI-H23 lung
[52] = test system: NCI/ADR-RES ovarian
[53] = test system: OVCAR-8 ovarian
[54] = test system: UACC-62 melanoma
[55] = test system: DU-145 prostate
[56] = test system: HOP-92 NSCLC
[57] = test system: SNB-19 CNS
[58] = test system: A498 renal
[59] = test system: NCI-H522 lung

Measured: TGI

CCCCNC(=O)OCCN=c1c2ccccc2ccc2ccccc12
not listed: [58] | [59]
> 100 µM: all other assays above

CN(Cc1cnc2nc(N)nc(N)c2n1)c1ccc(C(=O)NCCCS(=O)(=O)O)cc1
not listed: [21] | [32] | [33] | [50] | [56]
> 100 µM: all other assays above
